# Data from US4070469A, “Compound for the treatment of bovine mastitis” (priority 1975, dated 1978).
# “Also recorded” adds a separate entry of the source. Read-outs that look alike come from different tables or passages of the source.
# What was measured:
# [1] = test system: Strep.uberis and Stap.Aureus; experiment: Activity against mastitis bacteria in presence of milk (Table I, summary in words); type: cell-based
# From the text: (§1) The activity of some of said nitrofuryl quinolines derivatives against Strep.uberis and Stap.Aureus in milk has been compared with the activity of some of the compounds so far utilised in the treatment of bovine mastitis. The results are shown in Table I. (The nitrofuryl quinoline derivatives have general formula [drawing 1] the meaning of R, A, R', B, Y, X and Z being given in the Table. R1 =O whenever indicated then the N-oxide is concerned; NF stands for nitrofuryl)
# [2] = test system: Steph.aureus; experiment: Efficiency test in cows suffering from bovine mastitis; type: in vivo, cow; conditions: 2 doses, 24 hours interval
# Description: In has been shown that said range is effectful by an efficiency test in which various doses of 4-(5-nitrofuryl)-.quinaldinic acid N-oxide were administered to cows suffering from bovine mastitis. There were adminstered 2 doses in intervals of 24 hours. The results are shown in Table V in cured quarters/treated quarters.
# [3] = Residue of active compound in milk of the cow; type: in vivo; conditions: 500 mg in 7 ml P.E.G. base
# Description: Said four compounds were then tested for the length of time they could be detected in the milk of the cow. For this purpose 500 mg in 7 ml of a polyethylene glycol (P.E.G.) base of each compound were administered to several cows and the residue of active compound in milk were measured in mcg/ml after 24, 32 and 40 hours respectively.
# [4] = test system: Str.dysgal.; experiment: Efficiency test in cows suffering from bovine mastitis; type: in vivo, cow; conditions: 2 doses, 24 hours interval
# [5] = LD50 mice; conditions: mouse, in vivo
# [6] = test system: Staph.Aureus; experiment: Sensitivity of udder pathogens in milk, serial dilution; type: cell-based; conditions: 24 hours, 86 strains
# Description: (§2) This indication was verified by testing in vitro by the method of serial dilution the sensitivity of said compound against udder pathogens in milk in various concentrations measured in meg/ml of milk. The number of strains which were killed at each concentration were measured after 24 hours.
# [7] = test system: Str.agalactiac; experiment: as above; type: cell-based; conditions: 24 hours, 34 strains
# Description: as §2
# [8] = test system: C.pyogenes; experiment: as above; type: cell-based; conditions: 24 hours, 3 strains
# Description: as §2
# [9] = test system: Enterococci; experiment: as above; type: cell-based; conditions: 24 hours, 8 strains
# Description: as §2
# [10] = test system: Str.uberis; experiment: as above; type: cell-based; conditions: 24 hours, 32 strains
# Description: as §2
# [11] = test system: Str.dysgalactiae; experiment: as above; type: cell-based; conditions: 24 hours, 18 strains
# Description: as §2
# [12] = test system: udder; experiment: Number of leucocytes (somatic cells) in milk / irritation of the udder; type: in vivo, cow
# Description: Thereafter 500 mg of each of said compounds in 7 ml of a P.E.G. base and also 7 ml of said base above were administered to several cows and the number of leucocytes (sematic cells) in 10^6 per ml of milk were measured before administration and 40, 48 and 56 hours thereafter. The numbers of leucocytes present indicate the degree of irritation of the udder.
# [13] = test system: Staph.Aureus; experiment: Minimal bactericidal activity (MBC) in milk, field isolates; type: cell-based; conditions: Staphylococcus aureus, in milk at pH 7.2 - 7.4
# From the text: as §1
# (§3) Minimal Bactericidal/Activity (MBC) of representative Nitrofuryl
# (§4) in mcg/ml in milk at pH 7.2 - 7.4. Versus Standards (Field
# [14] = test system: Strep.uberis; experiment: as above; type: cell-based; conditions: Streptococcus uberis, in milk at pH 7.2 - 7.4
# From the text: as §1, §3, §4
# [15] = test system: Str.uberls; experiment: Efficiency test in cows suffering from bovine mastitis; type: in vivo, cow; conditions: 2 doses, 24 hours interval
# [16] = LD50 rats; conditions: rat, in vivo
# [17] = 25 meg/ml of milk (so in the source)
smiles,measurement,setting,value
"O=C(O)c1cc(-c2ccc([N+](=O)[O-])o2)c2ccccc2[n+]1[O-] [Compound 1, 2-carboxy-4-[2'-(5'-nitrofuryl)]quinoline N-oxide]",activity in presence of milk (in words),[1],significant activity in milk; also recorded: the most active one
same,"cured quarters, percent",[2]; 50 mg,50%
same,cured quarters/treated quarters,[2]; 50 mg,15/30
same,"cured quarters, percent",[2]; 100 mg,75%
same,cured quarters/treated quarters,[2]; 100 mg,6/8
same,"cured quarters, percent",[2]; 250 mg,75%
same,cured quarters/treated quarters,[2]; 250 mg,6/8
same,"cured quarters, percent",[2]; 500 mg,88%
same,cured quarters/treated quarters,[2]; 500 mg,8/9
same,time remaining in the milk (in words),[3],remained the shortest time in the milk
same,concentration at 24 h,"[3]; bovine, milk, 24 hrs",9800 ng/mL
same,"cured quarters, percent",[4]; 50 mg,62.5%
same,cured quarters/treated quarters,[4]; 50 mg,10/16
same,"cured quarters, percent",[4]; 100 mg,80%
same,cured quarters/treated quarters,[4]; 100 mg,4/5
same,"cured quarters, percent",[4]; 250 mg,83%
same,cured quarters/treated quarters,[4]; 250 mg,5/6
same,LD50,[5],3000 mg/kg
same,number of strains killed,[6]; 0.16 meg/ml of milk,4 strains
same,number of strains killed,[6]; 0.31 meg/ml of milk,14 strains
same,number of strains killed,[6]; 0.62 meg/ml of milk,51 strains
same,number of strains killed,[6]; 1.25 meg/ml of milk,15 strains
same,number of strains killed,[6]; [17],1 strains
same,number of strains killed,[7]; 0.02 meg/ml of milk,5 strains
same,number of strains killed,[7]; 0.04 meg/ml of milk,12 strains
same,number of strains killed,[7]; 0.08 meg/ml of milk,13 strains
same,number of strains killed,[7]; 0.16 meg/ml of milk,1 strains
same,number of strains killed,[7]; 0.31 meg/ml of milk,1 strains
same,number of strains killed,[7]; 0.62 meg/ml of milk,1 strains
same,number of strains killed,[7]; 1.25 meg/ml of milk,1 strains
same,number of strains killed,[8]; 0.62 meg/ml of milk,1 strains
same,number of strains killed,[8]; 1.25 meg/ml of milk,2 strains
same,number of strains killed,[9]; 0.04 meg/ml of milk,2 strains
same,number of strains killed,[9]; 0.08 meg/ml of milk,3 strains
same,number of strains killed,[9]; 0.16 meg/ml of milk,2 strains
same,number of strains killed,[9]; 0.31 meg/ml of milk,1 strains
same,number of strains killed,[10]; 0.16 meg/ml of milk,1 strains
same,number of strains killed,[10]; 0.31 meg/ml of milk,9 strains
same,number of strains killed,[10]; 0.62 meg/ml of milk,18 strains
same,number of strains killed,[10]; 1.25 meg/ml of milk,2 strains
same,number of strains killed,[10]; 5 meg/ml of milk,1 strains
same,number of strains killed,[10]; [17],1 strains
same,number of strains killed,[11]; 0.02 meg/ml of milk,1 strains
same,number of strains killed,[11]; 0.04 meg/ml of milk,2 strains
same,number of strains killed,[11]; 0.08 meg/ml of milk,13 strains
same,number of strains killed,[11]; 0.16 meg/ml of milk,1 strains
same,number of strains killed,[11]; 0.62 meg/ml of milk,1 strains
same,irritation of the udder (in words),[12]; 500 mg in 7 ml P.E.G. base,caused the lowest irritation
same,"number of leucocytes (sematic cells) in milk, 40 hrs.",[12]; 40 hrs after 500 mg in 7 ml P.E.G. base,0.95 10^6 per ml
same,"number of leucocytes (sematic cells) in milk, 48 hrs.",[12]; 48 hrs after 500 mg in 7 ml P.E.G. base,1.5 10^6 per ml
same,"number of leucocytes (sematic cells) in milk, 56 hrs.",[12]; 56 hrs after 500 mg in 7 ml P.E.G. base,0.95 10^6 per ml
same,"number of leucocytes (sematic cells) in milk, before",[12]; before administration (baseline),0.28 10^6 per ml
same,MBC,"[13]; field isolate 2337, read-out: Minimal Bactericidal Activity (MBC), Staph.Aureus 2337",0.5 µg/mL
same,MBC,"[13]; field isolate 2372, read-out: Minimal Bactericidal Activity (MBC), Staph.Aureus 2372",0.25 µg/mL
same,MBC,"[14]; field isolate 60B, read-out: Minimal Bactericidal Activity (MBC), Strep.uberis 60B",0.015 µg/mL
same,MBC,"[14]; field isolate 127A, read-out: Minimal Bactericidal Activity (MBC), Strep.uberis 127A",0.25 µg/mL
same,"cured quarters, percent",[15]; 50 mg,61.5%
same,cured quarters/treated quarters,[15]; 50 mg,8/13
same,"cured quarters, percent",[15]; 100 mg,80%
same,cured quarters/treated quarters,[15]; 100 mg,4/5
same,"cured quarters, percent",[15]; 250 mg,80%
same,cured quarters/treated quarters,[15]; 250 mg,4/5
same,"cured quarters, percent",[15]; 500 mg,84%
same,cured quarters/treated quarters,[15]; 500 mg,5/6
same,LD50,[16],1600 mg/kg
